Key:
Assay type in all cases: cell-based
[1] = test system: human umbilical vein endothelial cells (HUVECs); test: Proliferation of HUVECs, Promega cell titer assay; conditions: 72 hours
Protocol: Assays were performed to determine the effect of Cpd. 5 on proliferation of human umbilical vein endothelial cells (HUVECs). Passage 4-5 HUVECs, human source lot number 13047 (obtained from Lonza) were put into the wells of a 96-well tissue culture plate at 1200 cells/well in 100 μl endothelial growth medium-2 (EGM-2) complete medium (obtained from Lonza). A 50 mM stock solution of Cpd. 5 was prepared in DMSO and frozen at −80° C. Aliquots of the stock solution were removed and dilutions containing from 50 μM to 300 μM Cpd. 5 were made in EGM-2 complete medium (Lonza). Controls containing equivalent amounts of DMSO to the 200 μM solution were mixed for comparative purposes. 100 μl of the resulting solutions were then added to the cells in the 96-well culture plates in triplicate and placed in a 37° C. incubator with 5% CO2 for 72 hours.
Following incubation, cell proliferation was assayed by adding 20 μl Promega cell titer aqueous one reagent to each well. Promega cell titer reagent is a solution containing a tetrazolium dye that is reduced by living cells to a formazan dye, and this reduction is proportional to the number of living cells present in the well. The plates were incubated at 37° C. for an additional 4 hours to allow the colorimetric assay to develop, and the OD of each well was determined in a microplate reader using a 530 nm filter. The OD of wells containing cell titer reagent in culture medium with no cells was subtracted from the OD of all experimental readings.
The % decrease of the total cell titer signal was determined using the following formula. ((Diluent OD−Experimental OD)/Diluent OD))×100. Data are presented in Table 7 as mean % decrease of cell titer signal of three separate experiments, plus or minus standard deviation. In the mean % decrease column, a positive number means a decrease in cell titer signal, while a negative number means an increase in cell titer signal. The p values were calculated versus diluent controls.

endothelial cells = test: Endothelial cell tube formation; conditions: 50 μM or 100 μM
Protocol: When endothelial cells are cultured on extracellular matrix protein gels in the presence of angiogenic signals, they arrange themselves into structures loosely resembling capillary blood vessels (“tube formation”). Cpd.

MMP-9 [2] = test: Release of MMP-9 from STTG astrocytoma cells, gelatin zymogram; conditions: data not shown
MMP-9 [3] = test: Release of MMP-9 from primary human microglial cells, gelatin zymogram; conditions: supernatants concentrated 10×
MMP-9 [4] = test: Secretion of MMP-9 by BT001 glioma cells, gelatin zymogram; conditions: 48 hours
Protocol: Assays were performed to determine the effect of Cpd. 5 (synthesis described in Example 1) on the secretion of MMP-9 by the BT001 glioma cell line. The BT001 cell line was established as follows from cells obtained after surgery. The excised tissue was treated briefly with a protease cocktail, and the resulting cell suspension was cultured in IMDM supplemented with 10% FBS. Expanded cells were then frozen for future use.
A fresh 50 mM stock solution of Cpd. 5 was prepared in ethanol and warmed to 37° C. Aliquots of the stock solution were removed and diluted in IMDM supplemented with 0.1% FBS, insulin-transferrin-sodium selenite (ITSS) solution, and penicillin/streptomycin solution to prepare experimental culture media (final concentrations of Cpd. 5 ranged from 10-100 μM). Ethanol in the culture medium was used as diluent control.
The BT001 cells were cultured in 25 cm^2 flasks in IMDM containing 10% FBS at 37° C. and 5% CO2. When cells reach 70-80% confluence, they were washed two times with IMDM that had been warmed to 37° C. in a water bath. The experimental culture media containing Cpd. 5 were then added to the flasks (4.5 ml per flask), and the flasks were incubated at 37° C. and 5% CO2 for 48 hours. The conditioned media were then removed from the cells, and cellular debris was removed by centrifugation at 2000 rpm for 10 minutes. The supernatants were then transferred to sterile tubes and stored at −20° C.
Gelatin zymograms were used to evaluate MMP release and activity in the samples. Precast 10% polyacrylamide gels impregnated with gelatin were obtained from Invitrogen, Carlsbad, Calif. Ten μL, of each of the thawed conditioned media were mixed with an equal volume of SDS-PAGE loading dye without reducing agent (obtained from Invitrogen, Carlsbad, Calif.), applied to the gels and separated at 150 volts for 1 hour. The gels were then processed following the manufacturer's recommended protocol (includes renaturing the gels for one hour and incubating overnight at 37° C. with gentle shaking for protease digestion of gelatin). Visualization of MMP activity was done by staining the gel with Invitrogen Simple Safe blue commassie solution and photographing the gel on a Kodak Image station. The intensity of the bands in the photos was determined using bundled Kodak software. Percent decrease was determined with the following formula: (Intensity of diluent control)−(Intensity of treatment)/(Intensity of diluent control)×100. The data presented in Table 4 are the means of three or four replicate experiments.

COC(=O)C(c1ccc(-c2ccccc2)cc1)C1NC(=O)CNC1=O (stereo not shown) [Cpd. 5, biphenyl-4-yl-(3,6-dioxo-piperazin-2-yl)-acetic acid methyl ester]
MEAN % DECREASE of cell titer signal ([1]; 25 μM): −48.60% | MEAN % DECREASE of cell titer signal ([1]; 50 μM): −14.44% | MEAN % DECREASE of cell titer signal ([1]; 100 μM): 62.04% | effect on tube formation (endothelial cells): no observable effect | effect on the release of MMP-9 from the STTG cells (MMP-9 [2]): no effect | inhibition at 100 µM (MMP-9 [3]; 100 μM, read-out: inhibition of the release of active MMP-9): 35.9% | inhibition of the release of pro-MMP-9 (MMP-9 [3]; data not shown): did not inhibit | MEAN % DECREASE ACTIVE MMP-9 (MMP-9 [4]; BT001, 10 μM): 49.55 ± 21.49% | MEAN % DECREASE PRO-MMP-9 (MMP-9 [4]; BT001, 10 μM): 6.89 ± 20.51% | MEAN % DECREASE ACTIVE MMP-9 (MMP-9 [4]; BT001, 50 μM): 40.51 ± 9.73% | MEAN % DECREASE PRO-MMP-9 (MMP-9 [4]; BT001, 50 μM): 36.13 ± 20.53% | MEAN % DECREASE ACTIVE MMP-9 (MMP-9 [4]; BT001, 100 μM): 71.08 ± 17.47% | MEAN % DECREASE PRO-MMP-9 (MMP-9 [4]; BT001, 100 μM): 45.55 ± 20.50%
